From PubChem BioAssay AID179 (DTP/NCI, 2004)
The source made the active and inactive calls.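 Rule for the calls: active = compounds giving half or more protection of infected cells from virus-caused growth loss, again on retest; inactive = the rest.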 Where a SMILES comes first, the peptide text is derived from it. The star is where a group is joined. Cbz = O=C(OCc1ccccc1)*; OSu = O=C1CCC(=O)N1O*

Test system: CEM cells HIV-1 protection, formazan growth assay
Assay: NCI AIDS Antiviral Assay
Settings: for IC50: measured here: growth of uninfected CEM cells
Summary of the method: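 Soluble formazan readout of cell growth; CEM cells ± HIV-1; 5 drug concs. ≥50% protection → retest; ≥50% again = moderately active; reproducible 100% = confirmed active.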

SMILES	outcome	EC50	IC50
CCN1c2ccccc2-c2c3c1cc(C)cc3c1ccccc1[n+]2CC	inactive		
CCOP(=O)(OCC)/C(C#N)=C(\C)c1ccco1		> 200 µM	> 200 µM
Cn1c(=O)c2c(nc(CCCCCc3nc4c(c(=O)n(C)c(=O)n4C)n3C)n2C)n(C)c1=O		> 200 µM	> 200 µM
O=c1c(Cl)nsnc1Cl		> 490 µM	28.2 µM
Nc1nc(-c2ccc(Cl)cc2)nc2sc3c(c12)CCCCC3		> 30.2 µM	> 30.2 µM
O=C1C2C(C(=O)N1O)N(Cc1ccccc1)C(=O)N2Cc1ccccc1 (stereo unspecified)		> 708 µM	> 708 µM
CC1=NN(C(=O)c2ccccc2)C(C)C1N=Nc1ccccc1C(=O)O (stereo unspecified)	inactive		
CC(NC(=O)/C(C#N)=C/c1ccc2[nH]ccc2c1)c1ccccc1 (stereo unspecified)		> 42.7 µM	> 42.7 µM
Cn1cnc([N+](=O)[O-])c1Sc1ccccc1N		> 525 µM	61.7 µM
CN(C)/C=C/C(=O)c1cccc(C(=O)/C=C/N(C)C)n1		> 19.1 µM	> 19.1 µM
CN1CCc2c(sc3nc(Nc4ccccc4)n(N)c(=O)c23)C1		> 200 µM	93.3 µM
CN1c2ccccc2S(=O)(=O)n2c(COc3ccccc3)nnc21		> 200 µM	> 200 µM
Cn1cc(NC(=O)c2cc(NC(=O)c3cc(NC(=O)/C=C/C(=O)O)cn3C)cn2C)cc1C(=O)NCCC(=N)N		> 100 µM	89.1 µM
O=C1c2ccccc2C(=O)N1/N=C\c1ccc(Br)cc1		> 21.9 µM	> 21.9 µM
c1ccc(C2=NOC3COc4ccccc4OCC23)cc1 (stereo unspecified)		> 93.3 µM	> 93.3 µM
Cc1ccc(S(=O)(=O)N(CC(=O)O)c2ccccc2)cc1	inactive		
CC(C)(C)c1cc(CCC(=O)Nc2ccccc2[N+](=O)[O-])cc(NC#N)n1	inactive		
CC1OC23CCCCC2C(C#N)(C#N)C1(C#N)C(=N)O3 (stereo unspecified)		> 200 µM	4.27 µM

SMILES	outcome	EC50	IC50
N#CCCC/C(=N\O)C(=O)OCc1ccccc1		> 200 µM	> 200 µM
COc1ccc(C(c2c(O)c3ccccc3n(C)c2=O)c2c(O)c3ccccc3n(C)c2=O)cc1		> 8.13 µM	> 8.13 µM
O=[N+]([O-])c1ccccc1S(=O)c1ccccc1[N+](=O)[O-]		> 204 µM	3.47 µM
C1CN(/N=N/N2CCOCC2)CCO1		> 200 µM	> 200 µM
Nn1c(CCCCCCCCc2nnc(COc3c(O)ccc4ccccc34)n2N)nnc1COc1c(O)ccc2ccccc12		> 200 µM	170 µM
CC(NC(=O)C(NC(=O)OCc1ccccc1)C(C)C)C(=O)NCC(=O)ON1C(=O)CCC1=O (stereo not drawn) (Cbz-Val-Ala-Gly-OSu; configuration not given here)		> 100 µM	> 100 µM
O/N=C1\C(=C\c2ccc3c(c2)OCCO3)CCCC1C(NO)c1ccc2c(c1)OCCO2 (stereo unspecified)		> 16.6 µM	> 16.6 µM
CC(O[Si](C)(C)C(C)(C)C)[C@H](NC(=O)OCC(Cl)(Cl)Cl)C(=O)O (stereo partly specified)		> 617 µM	> 100 µM
CC(C)N(C(=O)C12C3C4C5C3C1(C(=O)N(C(C)C)C(C)C)C5C42)C(C)C (stereo unspecified)		> 100 µM	> 100 µM
COc1cccc2c1C(=N)c1c(O)c3c(c(O)c1C2=O)C[C@@](O)(C(C)=O)C[C@@H]3OC1CC(N)C(O)C(C)O1 (stereo partly specified)		> 0.2 µM	0.00631 µM
O=C1CCC[C@H]2O[C@@H](COC(=O)c3ccccc3)C[C@H]2O1		> 200 µM	> 200 µM
CC(=O)N1CCC23c4ccccc4N(C)C2CC(=O)CC13 (stereo unspecified)		> 871 µM	> 871 µM
COC(=O)c1c(C#N)c(N)nc2c1CCC2		> 200 µM	> 200 µM
CCCCCCCCCCCCCCCCC(O)CS(=O)(=O)O (stereo unspecified)		> 100 µM	16.2 µM
CCCCCCCCCc1c(O)c(O)c(CCCCCCCCC)c(CCCCCCCCC)c1CCCCCCCCC		> 100 µM	16.6 µM
CC(=O)OCCOCN1C(=O)NC(=O)/C(=C/c2cccc(OCc3ccccc3)c2)C1=O		> 200 µM	18.2 µM
CC1(CO)NC(C(=O)O)Cc2c1[nH]c1ccccc21 (stereo unspecified)		> 200 µM	> 200 µM
